Laboratory results as given in ChEMBL document CHEMBL3808348, “Rational Design, Synthesis, and Biological Evaluation of 7-Azaindole Derivatives as Potent Focused Multi-Targeted Kinase Inhibitors” (J Med Chem, 2016).
pEC50, pIC50: −log10 of the molar value.

Experiments:
[1] = target: hERG (KCNH2) (Homo sapiens, UniProt Q12809); test: Inhibition of human ERG expressed in HEK293 cells at 30 uM by patch clamp assay; type: cell-based; settings: HEK293 cells expressing human ERG
[2] = target: CDK2/Cyclin A2 (Homo sapiens) (UniProt P24941+P20248); settings: 100 nM
Description: Inhibition of CDK2/cyclinA (unknown origin) at 100 nM

[3] = target: Proto-oncogene tyrosine-protein kinase receptor Ret (Homo sapiens) (UniProt P07949); settings: 100 nM
Description: Inhibition of GST-tagged human recombinant RET (658 to 1114 residues) expressed in baculovirus using Fluorescein-Poly GT as substrate at 100 nM

[4] = target: T1, Platelet-derived growth factor receptor alpha (Homo sapiens, UniProt P16234); settings: 100 nM
T1 sequence (P16234 whole entry): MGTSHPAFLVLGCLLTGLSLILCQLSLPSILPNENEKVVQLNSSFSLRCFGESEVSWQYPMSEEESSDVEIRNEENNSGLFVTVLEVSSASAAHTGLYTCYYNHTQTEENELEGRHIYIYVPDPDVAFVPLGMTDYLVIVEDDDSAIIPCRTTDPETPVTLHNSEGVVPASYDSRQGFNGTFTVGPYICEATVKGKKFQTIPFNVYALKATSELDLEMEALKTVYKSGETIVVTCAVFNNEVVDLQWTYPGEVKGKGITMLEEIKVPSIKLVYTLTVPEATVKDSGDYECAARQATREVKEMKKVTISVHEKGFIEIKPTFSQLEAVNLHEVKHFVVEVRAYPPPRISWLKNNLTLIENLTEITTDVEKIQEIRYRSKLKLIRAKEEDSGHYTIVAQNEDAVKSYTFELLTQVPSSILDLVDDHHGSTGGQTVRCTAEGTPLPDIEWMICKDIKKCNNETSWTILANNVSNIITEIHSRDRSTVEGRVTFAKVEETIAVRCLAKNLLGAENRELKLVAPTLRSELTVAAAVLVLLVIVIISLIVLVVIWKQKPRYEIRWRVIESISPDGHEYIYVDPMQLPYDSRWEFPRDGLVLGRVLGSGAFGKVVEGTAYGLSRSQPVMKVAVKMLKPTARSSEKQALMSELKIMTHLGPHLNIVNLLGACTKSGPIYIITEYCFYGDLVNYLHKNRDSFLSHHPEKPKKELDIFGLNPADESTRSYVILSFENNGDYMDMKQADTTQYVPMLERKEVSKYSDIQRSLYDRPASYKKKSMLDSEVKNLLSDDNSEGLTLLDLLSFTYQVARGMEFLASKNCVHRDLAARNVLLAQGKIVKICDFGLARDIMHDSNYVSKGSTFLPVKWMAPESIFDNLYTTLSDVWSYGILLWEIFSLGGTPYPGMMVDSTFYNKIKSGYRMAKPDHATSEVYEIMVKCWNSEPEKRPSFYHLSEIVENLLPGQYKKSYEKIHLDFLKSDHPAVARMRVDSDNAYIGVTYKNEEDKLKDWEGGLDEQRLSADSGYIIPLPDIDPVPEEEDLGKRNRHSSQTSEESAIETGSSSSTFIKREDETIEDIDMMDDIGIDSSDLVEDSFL
Description: Inhibition of GST-tagged human recombinant PDGFRalpha (550 to 1089 residues) expressed in baculovirus using Fluorescein-Poly GT as substrate at 100 nM

[5] = target: Macrophage colony-stimulating factor 1 receptor (Homo sapiens) (UniProt P07333); settings: 100 nM
Description: Inhibition of His-tagged human recombinant CSF1R (538 to 910 residues) expressed in baculovirus using Fluorescein-Poly GT as substrate at 100 nM

[6] = target: Ribosomal protein S6 kinase beta-1 (Homo sapiens) (UniProt P23443); settings: 100 nM
Ribosomal protein S6 kinase beta-1 (Homo sapiens), sequence (P23443 whole entry, looked up): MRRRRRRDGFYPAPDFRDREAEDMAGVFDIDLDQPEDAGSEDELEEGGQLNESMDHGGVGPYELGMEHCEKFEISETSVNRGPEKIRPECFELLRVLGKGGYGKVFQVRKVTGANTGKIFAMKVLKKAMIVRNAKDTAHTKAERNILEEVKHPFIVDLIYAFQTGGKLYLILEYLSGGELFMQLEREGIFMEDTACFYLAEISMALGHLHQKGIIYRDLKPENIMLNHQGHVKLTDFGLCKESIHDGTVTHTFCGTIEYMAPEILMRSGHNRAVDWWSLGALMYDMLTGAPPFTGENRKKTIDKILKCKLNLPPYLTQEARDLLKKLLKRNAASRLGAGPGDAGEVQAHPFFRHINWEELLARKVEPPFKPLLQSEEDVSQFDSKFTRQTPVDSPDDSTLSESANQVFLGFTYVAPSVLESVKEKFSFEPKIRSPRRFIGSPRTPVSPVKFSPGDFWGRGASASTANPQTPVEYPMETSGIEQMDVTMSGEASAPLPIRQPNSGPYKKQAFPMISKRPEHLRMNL
Description: Inhibition of GST-tagged human recombinant p70S6K (1 to 421 residues) expressed in baculovirus using Fluorescein-Crosstide as substrate at 100 nM

[7] = test system: MDA-MB-231; test: Antiproliferative activity against human MDA-MB-231 cells after 72 hrs by MTT assay; type: functional, cell-based; settings: MDA-MB-231, 72 h
[8] = target: Tyrosine-protein kinase Lyn (Homo sapiens, UniProt P07948); test: Inhibition of GST-tagged full length human recombinant LYNA expressed in baculovirus using Fluorescein-Poly GT as substrate
Tyrosine-protein kinase Lyn, sequence (P07948 whole entry): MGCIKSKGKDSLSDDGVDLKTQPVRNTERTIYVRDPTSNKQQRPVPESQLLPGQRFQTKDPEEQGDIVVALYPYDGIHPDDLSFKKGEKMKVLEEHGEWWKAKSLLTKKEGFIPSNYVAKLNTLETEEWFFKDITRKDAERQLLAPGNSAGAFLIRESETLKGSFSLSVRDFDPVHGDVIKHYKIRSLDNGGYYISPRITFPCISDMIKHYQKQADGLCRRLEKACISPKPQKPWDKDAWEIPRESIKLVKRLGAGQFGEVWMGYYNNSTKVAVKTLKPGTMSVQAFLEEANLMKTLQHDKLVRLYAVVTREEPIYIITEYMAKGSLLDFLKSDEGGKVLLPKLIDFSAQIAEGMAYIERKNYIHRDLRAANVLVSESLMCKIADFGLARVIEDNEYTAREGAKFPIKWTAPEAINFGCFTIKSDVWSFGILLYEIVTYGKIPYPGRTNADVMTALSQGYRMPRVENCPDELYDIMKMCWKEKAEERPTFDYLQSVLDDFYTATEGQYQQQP

[9] = target: Receptor tyrosine-protein kinase erbB-2 (Homo sapiens) (UniProt P04626); settings: 100 nM
Description: Inhibition of His-tagged human recombinant ERBB2 (676 to 1225 residues) expressed in baculovirus using Fluorescein-Poly GT as substrate at 100 nM

[10] = target: Non-receptor tyrosine-protein kinase TYK2 (Homo sapiens) (UniProt P29597); settings: 100 nM
Description: Inhibition of GST-tagged human recombinant TYK2 (832 to 1187 residues) expressed in baculovirus using Fluorescein-Poly GT as substrate at 100 nM

[11] = target: Serine/threonine-protein kinase B-raf (Homo sapiens, UniProt P15056, V600E); test: Inhibition of full length GST-tagged human recombinant BRAF V600E mutant expressed in baculovirus using Fluorescein-MAP2K1 as substrate
[12] = target: Serine/threonine-protein kinase B-raf (Homo sapiens) (UniProt P15056); test: Inhibition of full length GST-tagged human recombinant BRAF expressed in baculovirus using Fluorescein-MAP2K1 as substrate at 100 nM
[13] = target: Tyrosine-protein kinase Yes (Homo sapiens, UniProt P07947); test: Inhibition of GST-tagged full length human recombinant YES expressed in baculovirus using Fluorescein-Poly GT as substrate
Tyrosine-protein kinase Yes, sequence (P07947 whole entry): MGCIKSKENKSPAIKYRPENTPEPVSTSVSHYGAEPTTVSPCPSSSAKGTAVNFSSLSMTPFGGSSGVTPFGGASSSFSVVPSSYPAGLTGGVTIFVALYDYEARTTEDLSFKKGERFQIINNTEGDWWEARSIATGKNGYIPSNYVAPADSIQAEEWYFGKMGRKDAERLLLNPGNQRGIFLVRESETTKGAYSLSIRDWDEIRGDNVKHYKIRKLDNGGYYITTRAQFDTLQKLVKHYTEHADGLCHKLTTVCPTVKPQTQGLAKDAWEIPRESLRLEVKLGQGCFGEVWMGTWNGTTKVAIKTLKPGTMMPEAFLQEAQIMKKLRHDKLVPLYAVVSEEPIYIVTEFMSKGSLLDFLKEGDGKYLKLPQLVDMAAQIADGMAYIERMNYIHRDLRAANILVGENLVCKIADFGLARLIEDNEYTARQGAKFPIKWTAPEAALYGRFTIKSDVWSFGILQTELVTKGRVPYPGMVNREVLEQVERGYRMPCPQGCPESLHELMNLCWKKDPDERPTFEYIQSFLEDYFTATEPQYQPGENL

[14] = target: Vascular endothelial growth factor receptor 1 (Homo sapiens) (UniProt P17948); settings: 100 nM
Description: Inhibition of GST-tagged human recombinant VEGFR1 (781 to 1338 residues) expressed in baculovirus using Fluorescein-Poly GT as substrate at 100 nM

[15] = target: Protein kinase C gamma type (Homo sapiens) (UniProt P05129); settings: 100 nM
Description: Inhibition of full length human recombinant PKCgamma expressed in baculovirus using Fluorescein-PKC as substrate at 100 nM

[16] = target: MAP kinase-activated protein kinase 2 (Homo sapiens) (UniProt P49137); settings: 100 nM
Description: Inhibition of His-tagged full length human recombinant MAPKAPK2 expressed in Escherichia coli using Fluorescein-CREBtide as substrate at 100 nM

[17] = test system: Tyrosine-protein kinase ABL1 (Homo sapiens), P00519 [G250E]; test: Inhibition of His-tagged full length human recombinant ABL G250E mutant expressed in baculovirus using Fluorescein-Poly GT as substrate at 100 nM
[18] = target: Bcr/Abl fusion protein (Homo sapiens, UniProt P00519); type: cell-based, BaF3
Description: Inhibition of human wild type BCR-ABL expressed in mouse BAF3 cells assessed as inhibition of cell proliferation after 72 hrs by MTT assay

[19] = target: Aurora kinase A (Homo sapiens) (UniProt O14965); settings: 100 nM
Description: Inhibition of full length His-tagged human recombinant Aurora A expressed in baculovirus using Fluorescein-CREBtide as substrate at 100 nM

[20] = target: T2, Tyrosine-protein kinase ABL1 (Homo sapiens, UniProt P00519); test: Inhibition of His-tagged full length human recombinant wild type ABL expressed in baculovirus using Fluorescein-Poly GT as substrate
[21] = target: T2, Tyrosine-protein kinase ABL1; test: Inhibition of His-tagged full length human recombinant wild type ABL expressed in baculovirus using Fluorescein-Poly GT as substrate at 100 nM
[22] = target: Epidermal growth factor receptor (Homo sapiens, UniProt P00533, T790M); test: Inhibition of GST-tagged human recombinant EGFR T790M mutant (668 to 1210 residues) expressed in baculovirus using Fluorescein-Poly GT as substrate
Epidermal growth factor receptor (Homo sapiens, UniProt P00533, T790M), sequence (P00533 25-1210 T790M limits assumed): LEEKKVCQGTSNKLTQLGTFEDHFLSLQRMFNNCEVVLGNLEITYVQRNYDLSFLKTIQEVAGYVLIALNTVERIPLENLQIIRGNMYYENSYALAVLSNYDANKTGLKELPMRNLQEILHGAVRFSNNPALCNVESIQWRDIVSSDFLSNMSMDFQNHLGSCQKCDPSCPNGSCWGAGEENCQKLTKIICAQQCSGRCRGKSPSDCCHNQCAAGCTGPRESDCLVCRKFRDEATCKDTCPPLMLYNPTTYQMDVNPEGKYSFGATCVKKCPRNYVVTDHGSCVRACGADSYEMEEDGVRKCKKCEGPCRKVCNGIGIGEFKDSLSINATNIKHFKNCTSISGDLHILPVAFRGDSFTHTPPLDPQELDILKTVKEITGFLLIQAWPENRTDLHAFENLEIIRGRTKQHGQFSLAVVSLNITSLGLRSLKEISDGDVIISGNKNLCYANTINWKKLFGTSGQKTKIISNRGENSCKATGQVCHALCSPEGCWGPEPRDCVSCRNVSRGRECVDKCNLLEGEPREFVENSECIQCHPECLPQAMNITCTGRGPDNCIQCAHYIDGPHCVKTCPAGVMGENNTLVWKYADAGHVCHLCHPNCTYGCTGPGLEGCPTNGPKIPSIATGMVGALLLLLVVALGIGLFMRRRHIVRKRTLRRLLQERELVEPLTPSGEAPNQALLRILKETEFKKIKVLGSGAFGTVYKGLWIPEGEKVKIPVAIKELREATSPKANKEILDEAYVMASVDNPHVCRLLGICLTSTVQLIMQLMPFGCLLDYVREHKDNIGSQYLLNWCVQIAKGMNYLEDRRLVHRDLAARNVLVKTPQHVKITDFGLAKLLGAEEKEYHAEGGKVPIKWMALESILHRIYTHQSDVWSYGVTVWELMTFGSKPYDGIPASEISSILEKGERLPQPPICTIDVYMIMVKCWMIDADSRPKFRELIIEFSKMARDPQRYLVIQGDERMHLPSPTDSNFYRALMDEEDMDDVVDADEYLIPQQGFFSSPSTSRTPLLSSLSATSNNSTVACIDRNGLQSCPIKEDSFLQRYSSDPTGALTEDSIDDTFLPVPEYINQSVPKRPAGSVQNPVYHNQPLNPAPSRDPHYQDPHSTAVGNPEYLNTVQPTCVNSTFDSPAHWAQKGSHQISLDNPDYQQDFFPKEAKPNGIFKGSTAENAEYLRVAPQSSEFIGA

[23] = target: Epidermal growth factor receptor (Homo sapiens, UniProt P00533); test: Inhibition of GST-tagged human recombinant EGFR (668 to1210 residues) expressed in baculovirus using Fluorescein-Poly GT as substrate
[24] = target: Tyrosine-protein kinase Blk (Homo sapiens) (UniProt P51451); test: Inhibition of His-tagged full length human recombinant BLK expressed in baculovirus using Fluorescein-Poly GT as substrate at 100 nM
[25] = target: T1, Platelet-derived growth factor receptor alpha; test: Inhibition of full length GST-tagged human recombinant PDGFRalpha expressed in baculovirus using Fluorescein-Poly GT as substrate at 100 nM
[26] = target: Cytoplasmic tyrosine-protein kinase BMX (Homo sapiens) (UniProt P51813); test: Inhibition of His-tagged full length human recombinant BMX expressed in baculovirus using Fluorescein-Poly GT as substrate at 100 nM
[27] = Antiproliferative activity against human BxPC3 cells after 72 hrs by MTT assay; type: functional, cell-based; settings: BXPC-3, 72 h
[28] = target: Ephrin type-B receptor 4 (Homo sapiens) (UniProt P54760); settings: 100 nM
Description: Inhibition of His-tagged human recombinant EPHB4 (561 to 987 residues) expressed in baculovirus using Fluorescein-Poly GT as substrate at 100 nM

[29] = target: Tyrosine-protein kinase Lck (Homo sapiens, UniProt P06239); test: Inhibition of His-tagged full length human recombinant LCK expressed in baculovirus using Fluorescein-Poly GT as substrate
[30] = target: Glycogen synthase kinase-3 beta (Homo sapiens) (UniProt P49841); settings: 100 nM
Description: Inhibition of GSK3B (unknown origin) at 100 nM

[31] = target: Cyclin-dependent kinase 5/CDK5 activator 1 (Homo sapiens) (UniProt Q00535+Q15078); settings: 100 nM
Cyclin-dependent kinase 5/CDK5 activator 1 (Homo sapiens), sequence (Q00535 whole entry): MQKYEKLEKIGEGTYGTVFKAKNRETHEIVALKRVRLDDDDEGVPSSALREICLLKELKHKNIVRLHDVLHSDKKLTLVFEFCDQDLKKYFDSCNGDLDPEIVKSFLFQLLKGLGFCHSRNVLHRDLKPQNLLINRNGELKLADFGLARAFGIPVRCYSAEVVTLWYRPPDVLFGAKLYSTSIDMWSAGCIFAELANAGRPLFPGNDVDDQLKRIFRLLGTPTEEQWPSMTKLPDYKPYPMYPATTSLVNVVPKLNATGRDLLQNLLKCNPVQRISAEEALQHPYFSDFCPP
Cyclin-dependent kinase 5/CDK5 activator 1 (Homo sapiens), sequence (Q15078 99-307 partner limits assumed): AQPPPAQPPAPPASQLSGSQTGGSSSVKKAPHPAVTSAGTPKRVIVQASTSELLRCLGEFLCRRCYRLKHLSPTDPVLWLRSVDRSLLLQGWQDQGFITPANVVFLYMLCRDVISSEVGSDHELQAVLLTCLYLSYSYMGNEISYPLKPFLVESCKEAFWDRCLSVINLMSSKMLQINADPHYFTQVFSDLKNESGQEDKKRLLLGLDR
Description: Inhibition of CDK5/p25 (unknown origin) at 100 nM

[32] = target: Tyrosine-protein kinase ABL1 (Homo sapiens, UniProt P00519, Y253F); test: Inhibition of His-tagged full length human recombinant ABL Y253F mutant expressed in baculovirus using Fluorescein-Poly GT as substrate
[33] = target: Vascular endothelial growth factor receptor 3 (Homo sapiens) (UniProt P35916); settings: 100 nM
Description: Inhibition of GST-tagged human recombinant VEGFR3 (800 to 1297 residues) expressed in baculovirus using Fluorescein-Poly GT as substrate at 100 nM

[34] = test system: NCI-H1975; test: Antiproliferative activity against human NCI-H1975 cells harboring EGFR L858R/T790M double mutant after 72 hrs by MTT assay; type: functional, cell-based; settings: NCI-H1975, 72 h
[35] = Tmax in Swiss mouse plasma at 2 mg/kg, iv by LC/MS/MS analysis; type: ADME, organism-based
[36] = target: Inhibitor of nuclear factor kappa-B kinase subunit alpha (Homo sapiens) (UniProt O15111); settings: 100 nM
Description: Inhibition of His-tagged full length human recombinant IKKalpha expressed in baculovirus using Fluorescein-IKK as substrate at 100 nM

[37] = target: Platelet-derived growth factor receptor beta (Homo sapiens) (UniProt P09619); settings: 100 nM
Description: Inhibition of His-tagged human recombinant PDGFRbeta (558 to 1106 residues) expressed in baculovirus using Fluorescein-Poly GT as substrate at 100 nM

[38] = target: Serine/threonine-protein kinase pim-1 (Homo sapiens) (UniProt P11309); settings: 100 nM
Serine/threonine-protein kinase pim-1 (Homo sapiens), sequence (P11309 whole entry, looked up): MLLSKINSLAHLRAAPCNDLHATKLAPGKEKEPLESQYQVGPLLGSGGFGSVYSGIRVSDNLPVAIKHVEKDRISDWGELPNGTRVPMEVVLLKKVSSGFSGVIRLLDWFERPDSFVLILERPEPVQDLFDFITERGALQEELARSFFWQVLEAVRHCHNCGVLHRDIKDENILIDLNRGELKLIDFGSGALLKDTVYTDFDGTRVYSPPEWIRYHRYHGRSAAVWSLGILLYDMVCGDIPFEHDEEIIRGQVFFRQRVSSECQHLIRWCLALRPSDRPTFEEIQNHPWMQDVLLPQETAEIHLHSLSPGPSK
Description: Inhibition of His-tagged full length human recombinant PIM1 expressed in baculovirus using Fluorescein-CREBtide as substrate at 100 nM

[39] = target: Tyrosine-protein kinase JAK3 (Homo sapiens) (UniProt P52333); settings: 100 nM
Description: Inhibition of GST-tagged human recombinant JAK3 (781 to 1124 residues) expressed in baculovirus using GFP-ST AT1 as substrate at 100 nM

Structure (SMILES): COC(=O)c1cc2cc(NCc3cc(NC(=O)c4cc(-n5cnc(C)c5)cc(C(F)(F)F)c4)ccc3C)cnc2[nH]1
- inhibition at 30 µM [1]: 26%
- inhibition [2]: < 40%
- inhibition [3]: < 40%
- inhibition [4]: < 40%
- inhibition [5]: < 40%
- inhibition [6]: < 40%
- pEC50 [7]: 6.80
- pIC50 [8]: 7.43
- inhibition [9]: < 40%
- inhibition [10]: < 40%
- pIC50 [11]: 8.00
- inhibition [12]: 54%
- pIC50 [13]: 7.36
- inhibition [14]: < 40%
- inhibition [15]: < 40%
- inhibition [16]: < 40%
- inhibition [17]: > 80%
- pEC50 [18]: 10.40
- inhibition [19]: < 40%
- pIC50 [20]: 8.22
- inhibition [21]: > 80%
- pIC50 [22]: 6.95
- pIC50 [23]: 7.82
- inhibition [24]: > 80%
- inhibition [25]: 68%
- inhibition [26]: > 80%
- pEC50 [27]: 7.46
- inhibition [28]: < 40%
- pIC50 [29]: 7.16
- inhibition [30]: < 40%
- inhibition [31]: < 40%
- pIC50 [32]: 7.29
- inhibition [33]: < 40%
- pEC50 [34]: 6.98
- Tmax [35]: 10 min
- inhibition [36]: < 40%
- inhibition [37]: < 40%
- inhibition [38]: < 40%
- inhibition [39]: < 40%
